Columns and labels:
wild-type HIV-1 = test: Spread assay: inhibition of acute HIV-1 infection of T-lymphoid cells (wild-type); type: cell-based
Procedure: Assays for the inhibition of acute HIV-1 infection of T-lymphoid cells (alternatively referred to herein as the “spread assay”) were conducted in accordance with Vacca, J. P. et al., Proc. Natl. Acad. Sci. USA 1994, 91: 4096. […] The compounds were also tested using a variant of the assay using HIV strains containing the K103N and Y181C mutants, and found to be less than 20-fold shifted relative to wild-type in all cases.

HIV-1 RT enzyme (WT) = HIV-1 RT enzyme (WT) (Human immunodeficiency virus type 1 group M subtype B, UniProt P04585); test: ECL assay for inhibition of HIV reverse transcriptase; type: biochemical; details: 100 nM compound; wild-type RT
Procedure: An assay to determine the in vitro inhibition of HIV reverse transcriptase by compounds of the present invention was conducted as follows: HIV-1 RT enzyme (0.1 nM) was combined with inhibitor or DMSO (10%) in assay buffer (50 mM Tris-HCl, pH 7.8, 1 mM dithiothreitol, 6 mM MgCl2, 80 mM KCl, 0.025% CHAPS, 0.1 mM EGTA), and the mixture preincubated for 30 minutes at room temperature in microtiter plates (Corning Costar #3365). 50 μL reaction mixtures were initiated with a combination of primer-template substrate (5 nM final concentration) and dNTPs (0.6 μM dNTPs, 20 nM Ruthenium-dUTP). The heterodimeric nucleic acid substrate was generated by annealing the DNA primer biotinylated-pD500 (obtained from Integrated DNA Technologies) to t500, a 500 nucleotide RNA template created by in vitro transcription (see Shaw-Reid et al., J. Biol. Chem., 278: 2777-2780). After a 90 minute incubation at 37° C., reactions were quenched by 60 μL of quenching buffer containing 0.05 M EDTA, 0.7% BSA, 0.07% Tween-20 and 0.017% sodium azide in PBS. […] The plate is then left at room temperature for 1 hour, after which it is washed 3 times with 200 μL per well of PBS. 150 μL of 1× read buffer T (MSD) is added and the plate read on the Sector Imager 6000 (MSD).

Row | SMILES | Spread (WT) CIC95 (nM) (50% NHS) (wild-type HIV-1) | inhibition at 0.1 µM (HIV-1 RT enzyme (WT)) [%] | Spread (WT) CIC95 (nM) (10% FBS) (wild-type HIV-1)
1 | Cn1c(Cn2ccc(Cl)c(Oc3cc(Cl)cc(C#N)c3)c2=O)n[nH]c1=O [Example 3-1, 3-Chloro-5-({4-chloro-1-[(4-methyl-5-oxo-4,5-dihydro-1H-1,2,4-triazol-3-yl)methyl]-2-oxo-1,2-dihydropyridin-3-yl}oxy)benzonitrile] | 15 | 75 | –
2 | CCn1c(Cn2ccc(C(F)(F)F)c(Oc3cc(Cl)cc(C#N)c3)c2=O)n[nH]c1=O [Example 2-1, 3-Chloro-5-({1-[(4-ethyl-5-oxo-4,5-dihydro-1H-1,2,4-triazol-3-yl)methyl]-2-oxo-4-(trifluoromethyl)-1,2-dihydropyridin-3-yl}oxy)benzonitrile] | 26 | 75 | –
3 | Cn1c(Cn2ccc(C(C)(F)F)c(Oc3cc(Cl)cc(C#N)c3)c2=O)n[nH]c1=O [Example 5-1, 3-Chloro-5-({4-(1,1-difluoroethyl)-1-[(4-methyl-5-oxo-4,5-dihydro-1H-1,2,4-triazol-3-yl)methyl]-2-oxo-1,2-dihydropyridin-3-yl}oxy)benzonitrile] | 10 | 75 | –
4 | Cn1c(Cn2cc(Br)c(C(F)(F)F)c(Oc3cc(Cl)cc(C#N)c3)c2=O)n[nH]c1=O [Example 7-1, 3-({5-Bromo-1-[(4-methyl-5-oxo-4,5-dihydro-1H-1,2,4-triazol-3-yl)methyl]-2-oxo-4-(trifluoromethyl)-1,2-dihydropyridin-3-yl}oxy)-5-chlorobenzonitrile] | 23 | 77 | –
5 | Cn1c(Cn2cc(Br)c(Cl)c(Oc3cc(Cl)cc(C#N)c3)c2=O)n[nH]c1=O [Example 6-1, 3-({5-Bromo-4-chloro-1-[(4-methyl-5-oxo-4,5-dihydro-lH-l,2,4-triazol-3-yl)methyl]-2-oxo-1,2-dihydropyridin-3-yl}oxy)-5-chlorobenzonitrile] | – | 90 | 5.1
6 | Cn1c(Cn2ccc(C(F)(F)F)c(Oc3cc(C#N)cc(C(F)F)c3)c2=O)n[nH]c1=O [Example 8-1, 3-(Difluoromethyl)-5-({1-[(4-methyl-5-oxo-4,5-dihydro-1H-1,2,4-triazol-3-yl)methyl]-2-oxo-4-(trifluoromethyl)-1,2-dihydropyridin-3-yl}oxy)benzonitrile] | – | 75 | 7.3
7 | Cn1c(Cn2ccc(C(F)(F)F)c(Oc3cc(Cl)cc(C#N)c3)c2=O)n[nH]c1=O [Example 1-1, 3-Chloro-5-({1-[(4-methyl-5-oxo-4,5-dihydro-1H-1,2,4-triazol-3-yl)methyl]-2-oxo-4-(trifluoromethyl)-1,2-dihydropyridin-3-yl}oxy)benzonitrile] | 19 | 85 | –
8 | Cn1c(Cn2ccc(Br)c(Oc3cc(Cl)cc(C#N)c3)c2=O)n[nH]c1=O [Example 4-1, 3-({4-Bromo-1-[(4-methyl-5-oxo-4,5-dihydro-1H-1,2,4-triazol-3-yl)methyl]-2-oxo-1,2-dihydropyridin-3-yl}oxy)-5-chlorobenzonitrile] | 12 | 90 | –

Reference: patent US8486975B2, “Non-nucleoside reverse transcriptase inhibitors” (Merck Canada Inc., priority 2010, dated 2013)
